Laboratory results taken from ChEMBL document CHEMBL1158305, “Bastadin 20 and bastadin O-sulfate esters from Ianthella basta: novel modulators of the Ry1R FKBP12 receptor complex” (J Nat Prod, 1996).

Target: Ryanodine receptor 1 (Oryctolagus cuniculus, UniProt P11716)
Experiment: Displacement of [3H]ryanodine from Ry1R/FKBP12 receptor complex in rabbit sarcoplasmic reticulum

Chain of Ryanodine receptor 1 (P11716 whole entry): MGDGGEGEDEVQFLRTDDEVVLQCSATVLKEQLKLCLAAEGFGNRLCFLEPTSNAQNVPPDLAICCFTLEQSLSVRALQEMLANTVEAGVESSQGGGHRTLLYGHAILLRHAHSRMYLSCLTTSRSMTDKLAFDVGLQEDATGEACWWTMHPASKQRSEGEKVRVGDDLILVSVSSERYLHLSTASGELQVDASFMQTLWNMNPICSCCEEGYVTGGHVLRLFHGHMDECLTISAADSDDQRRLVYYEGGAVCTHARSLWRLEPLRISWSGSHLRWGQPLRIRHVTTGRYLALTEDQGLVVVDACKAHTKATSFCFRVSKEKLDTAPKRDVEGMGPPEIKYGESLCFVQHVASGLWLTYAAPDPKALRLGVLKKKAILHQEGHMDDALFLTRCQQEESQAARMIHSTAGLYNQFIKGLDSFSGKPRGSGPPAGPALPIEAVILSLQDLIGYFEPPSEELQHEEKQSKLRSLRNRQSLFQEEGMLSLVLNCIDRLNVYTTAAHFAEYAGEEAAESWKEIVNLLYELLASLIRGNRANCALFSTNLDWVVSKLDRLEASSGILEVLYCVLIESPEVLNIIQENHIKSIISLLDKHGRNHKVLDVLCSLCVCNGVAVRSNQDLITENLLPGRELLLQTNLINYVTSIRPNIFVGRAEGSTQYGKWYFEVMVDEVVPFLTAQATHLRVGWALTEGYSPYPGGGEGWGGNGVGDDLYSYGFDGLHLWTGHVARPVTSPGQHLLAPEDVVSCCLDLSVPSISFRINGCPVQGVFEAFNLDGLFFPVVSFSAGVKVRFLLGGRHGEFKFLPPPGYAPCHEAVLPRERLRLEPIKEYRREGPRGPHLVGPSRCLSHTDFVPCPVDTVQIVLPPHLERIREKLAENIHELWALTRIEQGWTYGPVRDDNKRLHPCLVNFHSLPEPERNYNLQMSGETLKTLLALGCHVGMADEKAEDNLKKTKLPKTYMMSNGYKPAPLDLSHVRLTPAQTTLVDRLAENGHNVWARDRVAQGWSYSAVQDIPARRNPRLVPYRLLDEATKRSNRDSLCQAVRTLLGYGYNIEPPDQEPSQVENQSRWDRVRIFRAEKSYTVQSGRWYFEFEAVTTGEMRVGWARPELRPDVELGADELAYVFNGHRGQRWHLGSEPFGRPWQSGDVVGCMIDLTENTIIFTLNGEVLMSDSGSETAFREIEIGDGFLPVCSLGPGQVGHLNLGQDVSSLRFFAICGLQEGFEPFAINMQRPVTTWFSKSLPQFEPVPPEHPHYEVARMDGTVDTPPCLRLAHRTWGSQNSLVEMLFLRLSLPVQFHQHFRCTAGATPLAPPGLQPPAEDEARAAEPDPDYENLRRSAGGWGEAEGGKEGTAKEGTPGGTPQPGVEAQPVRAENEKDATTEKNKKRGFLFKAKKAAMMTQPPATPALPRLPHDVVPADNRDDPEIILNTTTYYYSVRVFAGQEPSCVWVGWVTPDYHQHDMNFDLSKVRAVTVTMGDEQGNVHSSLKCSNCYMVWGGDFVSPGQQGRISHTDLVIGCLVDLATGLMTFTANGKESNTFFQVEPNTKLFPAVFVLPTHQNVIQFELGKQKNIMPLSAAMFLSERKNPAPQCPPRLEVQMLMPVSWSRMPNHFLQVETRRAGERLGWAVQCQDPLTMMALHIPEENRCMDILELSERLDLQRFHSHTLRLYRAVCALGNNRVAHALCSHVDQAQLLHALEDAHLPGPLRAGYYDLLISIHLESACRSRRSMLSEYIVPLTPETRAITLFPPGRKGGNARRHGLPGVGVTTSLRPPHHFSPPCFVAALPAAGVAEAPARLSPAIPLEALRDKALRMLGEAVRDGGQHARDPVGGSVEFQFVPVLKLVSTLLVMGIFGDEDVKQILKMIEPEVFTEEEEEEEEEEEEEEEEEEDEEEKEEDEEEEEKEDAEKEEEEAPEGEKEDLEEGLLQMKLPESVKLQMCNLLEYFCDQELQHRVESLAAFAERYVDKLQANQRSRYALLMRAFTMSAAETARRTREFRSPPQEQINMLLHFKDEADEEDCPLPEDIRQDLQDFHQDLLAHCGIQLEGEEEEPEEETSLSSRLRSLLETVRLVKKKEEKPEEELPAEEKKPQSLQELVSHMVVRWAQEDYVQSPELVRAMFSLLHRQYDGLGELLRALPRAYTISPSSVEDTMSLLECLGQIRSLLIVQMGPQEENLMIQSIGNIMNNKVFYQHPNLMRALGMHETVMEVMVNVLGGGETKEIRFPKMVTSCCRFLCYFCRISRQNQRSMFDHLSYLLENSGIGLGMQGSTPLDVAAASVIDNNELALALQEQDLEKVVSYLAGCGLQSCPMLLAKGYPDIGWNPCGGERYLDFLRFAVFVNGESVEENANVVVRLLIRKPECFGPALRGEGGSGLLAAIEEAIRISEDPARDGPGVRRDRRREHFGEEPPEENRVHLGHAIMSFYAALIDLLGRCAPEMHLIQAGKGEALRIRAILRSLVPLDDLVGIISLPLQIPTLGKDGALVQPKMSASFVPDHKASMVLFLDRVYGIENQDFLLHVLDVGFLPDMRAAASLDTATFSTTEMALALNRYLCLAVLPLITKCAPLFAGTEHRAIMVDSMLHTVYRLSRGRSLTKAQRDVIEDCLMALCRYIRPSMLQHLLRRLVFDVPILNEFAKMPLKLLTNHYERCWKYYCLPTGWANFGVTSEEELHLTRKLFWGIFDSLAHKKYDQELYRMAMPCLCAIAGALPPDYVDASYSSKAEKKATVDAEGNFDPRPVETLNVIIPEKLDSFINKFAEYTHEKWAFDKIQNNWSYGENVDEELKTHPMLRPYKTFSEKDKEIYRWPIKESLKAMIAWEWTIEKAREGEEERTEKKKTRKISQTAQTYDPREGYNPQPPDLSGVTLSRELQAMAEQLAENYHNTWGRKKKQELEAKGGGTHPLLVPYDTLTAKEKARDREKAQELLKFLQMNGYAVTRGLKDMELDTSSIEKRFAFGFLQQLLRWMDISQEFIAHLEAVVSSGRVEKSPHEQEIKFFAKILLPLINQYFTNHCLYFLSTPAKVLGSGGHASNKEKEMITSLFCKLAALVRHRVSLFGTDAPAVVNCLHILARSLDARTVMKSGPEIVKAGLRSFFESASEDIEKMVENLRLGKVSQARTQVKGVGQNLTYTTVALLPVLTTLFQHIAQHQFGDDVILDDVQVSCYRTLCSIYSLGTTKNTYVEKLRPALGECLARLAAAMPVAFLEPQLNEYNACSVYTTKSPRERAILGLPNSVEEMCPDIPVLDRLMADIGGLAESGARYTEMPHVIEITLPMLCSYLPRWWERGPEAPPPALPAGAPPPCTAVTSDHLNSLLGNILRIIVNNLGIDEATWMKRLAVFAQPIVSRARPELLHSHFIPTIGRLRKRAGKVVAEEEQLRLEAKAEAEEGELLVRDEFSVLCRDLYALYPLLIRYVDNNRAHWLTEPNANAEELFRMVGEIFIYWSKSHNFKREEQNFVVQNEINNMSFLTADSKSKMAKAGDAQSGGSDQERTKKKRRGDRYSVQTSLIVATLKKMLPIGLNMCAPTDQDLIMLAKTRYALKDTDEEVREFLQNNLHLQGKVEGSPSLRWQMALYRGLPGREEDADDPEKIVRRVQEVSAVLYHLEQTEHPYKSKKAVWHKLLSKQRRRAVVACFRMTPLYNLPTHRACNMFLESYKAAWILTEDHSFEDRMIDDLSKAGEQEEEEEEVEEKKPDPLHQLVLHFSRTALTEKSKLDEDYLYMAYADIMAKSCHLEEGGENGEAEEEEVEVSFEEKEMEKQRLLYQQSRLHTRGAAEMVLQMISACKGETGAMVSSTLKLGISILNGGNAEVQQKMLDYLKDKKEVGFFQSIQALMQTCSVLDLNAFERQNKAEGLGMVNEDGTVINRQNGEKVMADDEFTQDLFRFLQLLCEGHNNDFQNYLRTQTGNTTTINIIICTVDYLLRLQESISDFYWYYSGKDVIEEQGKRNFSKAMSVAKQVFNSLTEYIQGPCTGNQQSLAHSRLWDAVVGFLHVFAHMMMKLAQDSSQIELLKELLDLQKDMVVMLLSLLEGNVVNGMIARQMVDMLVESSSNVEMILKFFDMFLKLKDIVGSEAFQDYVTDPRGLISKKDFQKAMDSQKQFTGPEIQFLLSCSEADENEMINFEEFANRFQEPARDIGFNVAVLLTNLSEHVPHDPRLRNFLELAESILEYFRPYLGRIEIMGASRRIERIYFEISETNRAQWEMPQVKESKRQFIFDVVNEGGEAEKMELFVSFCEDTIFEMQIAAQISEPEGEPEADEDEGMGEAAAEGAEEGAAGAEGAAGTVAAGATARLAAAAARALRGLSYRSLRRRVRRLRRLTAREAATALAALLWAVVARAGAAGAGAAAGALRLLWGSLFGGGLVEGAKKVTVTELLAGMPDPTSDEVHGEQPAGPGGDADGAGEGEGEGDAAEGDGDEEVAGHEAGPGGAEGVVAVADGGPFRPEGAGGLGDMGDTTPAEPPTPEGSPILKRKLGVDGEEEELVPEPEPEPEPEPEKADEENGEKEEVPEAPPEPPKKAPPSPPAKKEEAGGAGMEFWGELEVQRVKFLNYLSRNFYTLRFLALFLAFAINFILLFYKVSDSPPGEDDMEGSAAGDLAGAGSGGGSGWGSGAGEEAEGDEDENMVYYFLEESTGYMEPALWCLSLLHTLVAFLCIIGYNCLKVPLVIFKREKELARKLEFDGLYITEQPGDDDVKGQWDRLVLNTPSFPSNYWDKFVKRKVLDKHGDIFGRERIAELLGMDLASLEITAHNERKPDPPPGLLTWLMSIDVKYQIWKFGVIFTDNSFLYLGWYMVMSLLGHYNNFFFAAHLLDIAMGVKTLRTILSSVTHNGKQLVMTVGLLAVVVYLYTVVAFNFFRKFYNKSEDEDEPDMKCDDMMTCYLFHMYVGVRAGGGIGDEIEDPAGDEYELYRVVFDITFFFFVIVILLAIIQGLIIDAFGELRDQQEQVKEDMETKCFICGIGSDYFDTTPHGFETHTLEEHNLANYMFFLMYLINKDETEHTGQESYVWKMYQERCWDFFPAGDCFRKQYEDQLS

| SMILES | EC50 |
| --- | --- |
| O=C1NCCc2ccc(c(Br)c2)Oc2cc(cc(Br)c2O)CCNC(=O)/C(=N/O)Cc2cc(Br)c(O)c(c2)Oc2c(Br)cc(cc2Br)C/C1=N\O [BASTADIN 19] | > 100 µM |
| O=C1N/C=C/c2ccc(c(Br)c2)Oc2cc(cc(Br)c2OS(=O)(=O)O)CCNC(=O)/C(=N/O)Cc2ccc(c(Br)c2)Oc2cc(cc(Br)c2OS(=O)(=O)O)C/C1=N\O | 13.6 µM |
